# Article PMC9127185, “A Pyridazinone Compound for Effectively Treating Non-alcoholic Steatohepatitis by Targeting THRβ” (Frontiers in Chemistry, 2022)
# Entries after “also recorded” stand apart in the source; their conditions may differ.
# Experiments:
# [1] = Tissue distribution study after oral administration; type: in vivo, C57BL/6J mice; settings: for Time of highest tissue level: oral
# Procedure: The frozen mice plasma samples and tissue homogenates were thawed at room temperature, vortexed for 1 min, then taken out in 10-μl aliquots in a 1.50-ml centrifuge tube, and this was then mixed with 1 μl of standard solution and 50 μl of internal standard (IS) solution, which was then dissolved and diluted with acetonitrile. Subsequently, it was vortexed for 3 min and at 14,000 rpm centrifugation for 5 min. The adopted 1 μl of the supernatant was used for sample injection analysis.
# A total of 24 male C57/BL6J mice were divided into 4 groups at random, with 6 mice in a group for tissue distribution at 0.25, 1, 6, and 24 h. They were given YWS01125 after oral administration of 20 mg/kg, and then sacrificed at 0.25, 1, 6, and 24 h. Tissues from the heart, liver, spleen, lungs, kidneys, stomach, small intestine, colon, fat, muscle, testes, and brain were taken and rinsed with saline solution to remove the blood and connective tissues ([Geng et al., 2015]; [He et al., 2017]; [Jiang et al., 2017]), then put on the filter paper and weighed, quickly. Each tissue sample was homogenized by using five times of the tissue weight saline (w/v). All homogenates were stored at−80 °C until analysis.
# The tissue distributions of YWS01125 were investigated in C57BL/6J mice at 0.25, 1, 6, and 24 h after oral administration. The examined organs or tissues included the heart, liver, spleen, lungs, kidneys, stomach, small intestine, colon, fat, muscle, testes, and brain. The linear ranges, correlation coefficients, weight factors, and regression equations for all analytes in the mouse plasma and tissue homogenates are shown in Table 5. The concentration of each tissue at 0.25 h is indicated as stomach > kidneys > liver > colon > small intestine > testes > heart > spleen > lungs > fat; concentration of each tissue at 1 h is small intestine > colon > liver > stomach > kidneys > lungs > heart > fat > testes; concentration of each tissue at 6 h is small intestine > colon > stomach > liver > kidneys > heart; and concentration of each tissue at 24 h is that the whole tissues were not detected (Table 6). […] The content of the compound in the stomach was much higher than that in any other organ. The highest levels were reached 0.25 h after oral administration, then decreased thereafter. For the heart, liver, kidneys, lungs, small intestine, colon, and fat, the highest level was reached 1 h after oral administration, and it reached the highest levels at 0.25 h in the spleen, stomach, and testes.
# [2] = Stability of liver microsomes study (human); type: in vitro ADME; settings: human liver microsomes 0.50 mg/ml, NADPH-generating system, 37°C, 0-90 min
# Procedure: Hypersil GOLD C18 column (4.6 × 150 mm, 5 μm, Thermo). A 0.025% ammonia aqueous solution in water (solvent A) and acetonitrile (solvent B) were used as mobile phases with gradient elution. The gradient was as follows: 0.01 min, 15% B; 5 min, 20% B; 12 min, 80% B; 16 min, 80% B; 16.01 min, 15% B; 19 min, 15% B; and 19.01 min, stopped. The timing interval was 19 min, and the flow rate was set at 1 ml/min.
# The incubation system was carried out in 0.05 M Tris/KCl buffer (PH = 7.4) and included the following: pyrazinone compounds dissolved with dimethyl sulfoxide (DMSO), mouse liver microsomes and human liver microsomes at 0.50 mg/ml, 1.30 mM nicotinamide adenine dinucleotide sodium phosphate (NADP), 3.30 mM glucose-6-phosphate disodium salt (G-6-P), 0.40 units/mL glucose-6-phosphate dehydrogenase (G-6-PDH), and 3.30 mM magnesium chloride. […] After preincubation for 3 min in an 850-rpm blender (37°C), liver microsomes were added to initiate the incubation reaction (37°C). The incubation time was 0, 30, 60, and 90 min. After incubation, an equal volume of cold acetonitrile was added to stop the reaction, and an internal standard (0.05 mg/ml acetaminophen solution) was added. The samples were centrifuged at 10,000 rpm for 10 min to precipitate proteins ([Day et al., 2017]; [Manne et al., 2018]), and the 10 µL of the supernatant was taken for HPLC analysis.
# [3] = Stability of YWS01125 in mouse plasma under storage conditions; type: in vitro ADME; settings: for Accuracy (RE) after storage / Concentration found after storage, Mean ± SD: mouse plasma
# Procedure: The validation was carried out by the US Food and Drug Administration bioanalytical method guidance ([Bioanalytical Method Validation, 2018]; [US Food and Drug Administration, 2018]; [Chen et al., 2019]), namely evaluating selectivity, linearity, accuracy and precision, recovery, matrix effect, and stability. Selectivity was assessed by contrasting the normal blank plasma samples' and analyst plasma samples' chromatograms from six different specimens. Linearity was appraised by different concentrations of the standard medicated plasma samples for 3 days continuously. The peak area was recorded ([Booth et al., 2015]), and weighted (1/x^2) least-squares analysis was used to acquire the standard curve equations. The accuracy and precision were assessed by three different (low, medium, and high) QC samples by diluting with acetonitrile; each concentration had six samples and was continuously accessed for 3 days, and the accuracy, intra-day precision, and inter-day precision were obtained. Recovery was evaluated by comparing the peak area of protein precipitated with acetonitrile first and finally using it to calculate the recovery of the analyst. The matrix effect was measured by comparing the analyst peak area with the saline solution samples and QC samples at the three concentrations. The stability was assessed by defining the three QC levels in several different storage conditions: at room temperature for 6 h, injector stability at 15 °C for a whole night, and after three freeze–thaw cycles.
# This experiment investigated the stability of YWS01125 in the mouse plasma at different temperature conditions, namely the auto sampler (15°C) for 12 h of injector stability, room temperature for 6 h, and three freeze–thaw cycles. […] The measured results of YWS01125 are all within the acceptable limits during the entire process (Table 3).
# Cytotoxicity = type: cell-based; settings: in words, no data shown
# [4] = after oral administration, all time points
# [5] = injector stability (15°C, 12 h), added 10 ng/ml
# [6] = injector stability (15°C, 12 h), added 50 ng/ml
# [7] = injector stability (15°C, 12 h), added 300 ng/ml
# [8] = room temperature for 6 h, added 10 ng/ml
# [9] = room temperature for 6 h, added 300 ng/ml
# [10] = three freeze–thaw cycles, added 10 ng/ml
# [11] = three freeze–thaw cycles, added 50 ng/ml
# [12] = three freeze–thaw cycles, added 300 ng/ml
compound,measurement,setting,value
"N#Cc1cn(-c2cc(Cl)c(Oc3cc(C4CCC4)c(=O)[nH]n3)c(Cl)c2)c(=O)[nH]c1=O [YWS01125, 1-(3,5-dichloro-4-((5-cyclobutyl-6-oxo-1,6-dihydropyridazin-3-yl)oxy)phenyl)-2,4-dioxo-1,2,3,4-tetrahydropyrimidine-5-carbonitrile]",Concentration in the brain,[1]; [4],not detected
same,Concentration in the muscle,[1]; [4],not detected
same,Time of highest tissue level,"[1]; heart, liver, kidneys, lungs, small intestine, colon, fat",1 h
same,Colon tissue concentration,"[1]; oral 20 mg/kg, 15 min",46.70 ± 2.27
same,Fat tissue concentration,"[1]; oral 20 mg/kg, 15 min",9.37 ± 0.88
same,Heart tissue concentration,"[1]; oral 20 mg/kg, 15 min",7.00 ± 1.05
same,Kidneys tissue concentration,"[1]; oral 20 mg/kg, 15 min",129.83 ± 18.31
same,Liver tissue concentration,"[1]; oral 20 mg/kg, 15 min",69.93 ± 11.25
same,Lungs tissue concentration,"[1]; oral 20 mg/kg, 15 min",5.51 ± 1.22
same,Small intestine tissue concentration,"[1]; oral 20 mg/kg, 15 min",31.30 ± 6.38
same,Spleen tissue concentration,"[1]; oral 20 mg/kg, 15 min",6.26 ± 0.60
same,Stomach tissue concentration,"[1]; oral 20 mg/kg, 15 min",378.67 ± 36.89
same,Testes tissue concentration,"[1]; oral 20 mg/kg, 15 min",15.37 ± 2.15
same,Colon tissue concentration,"[1]; oral 20 mg/kg, 1 h",357.67 ± 35.31
same,Fat tissue concentration,"[1]; oral 20 mg/kg, 1 h",8.69 ± 1.45
same,Heart tissue concentration,"[1]; oral 20 mg/kg, 1 h",14.41 ± 5.97
same,Kidneys tissue concentration,"[1]; oral 20 mg/kg, 1 h",230.50 ± 15.53
same,Liver tissue concentration,"[1]; oral 20 mg/kg, 1 h",283.67 ± 40.72
same,Lungs tissue concentration,"[1]; oral 20 mg/kg, 1 h",60.76 ± 4.97
same,Small intestine tissue concentration,"[1]; oral 20 mg/kg, 1 h",373.00 ± 33.88
same,Stomach tissue concentration,"[1]; oral 20 mg/kg, 1 h",247.17 ± 24.96
same,Testes tissue concentration,"[1]; oral 20 mg/kg, 1 h",6.08 ± 4.70
same,Colon tissue concentration,"[1]; oral 20 mg/kg, 6 h",60.23 ± 3.87
same,Heart tissue concentration,"[1]; oral 20 mg/kg, 6 h",4.01 ± 1.27
same,Kidneys tissue concentration,"[1]; oral 20 mg/kg, 6 h",12.73 ± 1.65
same,Liver tissue concentration,"[1]; oral 20 mg/kg, 6 h",16.63 ± 1.72
same,Small intestine tissue concentration,"[1]; oral 20 mg/kg, 6 h",61.03 ± 4.06
same,Stomach tissue concentration,"[1]; oral 20 mg/kg, 6 h",54.49 ± 10.20
same,Time of highest tissue level,"[1]; spleen, stomach, testes",0.25 h
same,Metabolic stability / metabolite formation in liver microsomes,[2],no metabolites; also recorded: stable
same,Stability in mouse plasma (in words),"[3]; auto sampler 15°C 12 h, room temperature 6 h, three freeze–thaw cycles",maintains stability
same,Accuracy (RE) after storage,[3]; [5],5.00%
same,"Concentration found after storage, Mean ± SD",[3]; [5],10.67 ± 0.52 ng/mL
same,Accuracy (RE) after storage,[3]; [6],−4.68%
same,"Concentration found after storage, Mean ± SD",[3]; [6],49.91 ± 2.15 ng/mL
same,Accuracy (RE) after storage,[3]; [7],−1.60%
same,"Concentration found after storage, Mean ± SD",[3]; [7],295.17 ± 29.36 ng/mL
same,Accuracy (RE) after storage,[3]; [8],1.20%
same,"Concentration found after storage, Mean ± SD",[3]; [8],10.29 ± 0.82 ng/mL
same,"Concentration found after storage, Mean ± SD","[3]; room temperature for 6 h, added 50 ng/ml",52.62 ± 1.73 ng/mL
same,Accuracy (RE) after storage,[3]; [9],3.88%
same,"Concentration found after storage, Mean ± SD",[3]; [9],299.33 ± 10.07 ng/mL
same,Accuracy (RE) after storage,[3]; [10],−1.80%
same,"Concentration found after storage, Mean ± SD",[3]; [10],9.45 ± 0.57 ng/mL
same,Accuracy (RE) after storage,[3]; [11],−2.20%
same,"Concentration found after storage, Mean ± SD",[3]; [11],47.80 ± 3.96 ng/mL
same,Accuracy (RE) after storage,[3]; [12],−2.66%
same,"Concentration found after storage, Mean ± SD",[3]; [12],289.17 ± 12.77 ng/mL
same,Cytotoxicity,Cytotoxicity,low cytotoxicity
